Tests used:
Format in all cases: cell-based
[1] = test system: LL-37 gene in human gingival epithelial Ca9-22 cells; assay: Effect of promoting expression of LL-37 gene (quantitative real-time PCR); settings: treatment for 24 hours, absence of HKPG, compared to untreated, FIG. 1
Procedure: (§1) Test solutions for evaluating the biological activities were prepared as follows. In evaluating the biological activities, all test solutions were prepared at the time of use. • (a) Approximately 1 mg of SAC and S1PC (cis:trans=15:85) were each precisely weighed and dissolved in 0.6 mL of purified water (10 mM). This solution was used as a stock solution and diluted appropriately to be subjected to the test. • (b) SAMC was dissolved in a culture medium for cell culture (containing 10% bovine serum albumin, […] penicillin, and 100 μg/mL streptomycin) (1 mM). This solution was used as a stock solution and diluted to be subjected to the test. (2) Cells for Evaluation Test
Test cells (human gingival epithelial Ca9-22 cells) were purchased from the National Institute of Biomedical Innovation, Health and Nutrition. […]
(§2) Using a reverse transcription kit (PrimeScript RT reagent kit with gDNA Eraser, RR047A, TAKARA), degradation of DNA remaining in total RNA and reverse transcription reaction from RNA to complementary DNA (cDNA) were carried out. Next, cDNA derived from the target gene was amplified by quantitative real-time polymerase chain reaction (PCR) using primers specific for LL-37 or hBD3 gene. The relative expression levels of LL-37 and hBD3 genes were calculated using beta-actin as an internal reference gene.

[2] = test system: hBD3 gene in human gingival epithelial Ca9-22 cells; assay: Effect of promoting expression of hBD3 gene (quantitative real-time PCR)
Procedure: as §1
Test cells (human gingival epithelial Ca9-22 cells) were purchased from the National Institute of Biomedical Innovation, Health and Nutrition. Immediately after purchasing, the culturing was initiated (5% CO2, 37° C.) Subculturing was carried out two or three times per week.
The Ca9-22 cells were prepared to 1×10^5 cells/mL in a 10% serum-containing medium, seeded in a 12-well plate at 1 mL respectively, and cultured for 24-48 hours. Assay was carried out when the percentage of cells in each well reached nearly 100%. In the presence or absence of heat-sterilized Porphyromonas gingivalis (HKPG), a reagent was added and the culturing was continued for 24 hours. After completion of culturing, the culture supernatant was removed and […] was added, followed by treatment at room temperature for 5 minutes. RIPA buffer was collected from each well into tubes and chloroform was added (40 μL/tube), followed by treatment at room temperature for 2-3 minutes. After centrifugation (13,000 g, 5 min, 4° C.), the supernatant was transferred to a new tube and 2-propanol was added thereto (80 μL/tube), followed by treatment at room temperature for 10 minutes. After centrifugation (13,000 g, 10 min, 4° C.), the supernatant was removed, and 75% ethanol was added to the precipitate (200 μL/tube), and further centrifugation (13,000 g, 10 min, 4° C.) was carried out. After centrifugation (13,000 g, 10 min, 4° C.), the supernatant was removed, and the dried precipitate (total RNA) was dissolved in sterile water and cryopreserved at −80° C. until use.
as §2

[3] = test system: ICAM-1 protein in human gingival epithelial Ca9-22 cells; assay: Effect of down-regulating expression of ICAM-1 induced by TNF-α (Western blot); settings: co-treatment with TNF-α, 24 hours, FIG. 3
Procedure: Test solutions for evaluating the biological activities were prepared as follows. In evaluating the biological activities, all test solutions were prepared at the time of use. • (a) Approximately 1 mg of SAC and […] (cis:trans=15:85) were each precisely weighed and dissolved in 0.6 mL of purified water (10 mM). This solution was used as a stock solution and diluted appropriately to be subjected to the test. • (b) SAMC was dissolved in a culture medium for cell culture (containing 10% bovine serum albumin, […] penicillin, and 100 μg/mL streptomycin) (1 mM). This solution was used as a stock solution and diluted to be subjected to the test. (2) Cells for Evaluation Test Test cells (human gingival epithelial Ca9-22 cells) were purchased from the National Institute of Biomedical Innovation, Health and Nutrition. Immediately after purchasing, the culturing was initiated (5% CO2, 37° C.) Subculturing was carried out two or three times per week. […] A portion of the above protein supernatant was collected and the total protein concentration was calculated by BCA method. […] After reaction treatment, the proteins were washed with Tris-buffered saline three times, an HRP substrate was added thereto, and the luminescence intensity was detected by a luminoimage analyzer.

[4] = test system: IL-6 release from human gingival epithelial Ca9-22 cells; assay: Effect of reducing release of IL-6 induced by TNF-α (ELISA); settings: co-treatment with TNF-α, 6 hours, FIGS. 4 and 5
Procedure: Test solutions for evaluating the biological activities were prepared as follows. In evaluating the biological activities, all test solutions were prepared at the time of use. • (a) Approximately 1 mg of SAC and […] (cis:trans=15:85) were each precisely weighed and dissolved in 0.6 mL of purified water (10 mM). This solution was used as a stock solution and diluted appropriately to be subjected to the test. • (b) SAMC was dissolved in a culture medium for cell culture (containing 10% bovine serum albumin, […] penicillin, and 100 μg/mL streptomycin) (1 mM). This solution was used as a stock solution and diluted to be subjected to the test. (2) Cells for Evaluation Test Test cells (human gingival epithelial Ca9-22 cells) were purchased from the National Institute of Biomedical Innovation, Health and Nutrition. Immediately after purchasing, the culturing was initiated (5% CO2, 37° C.) Subculturing was carried out two or three times per week. […] IL-6 ELISA Ready-SET-Go! Kit was purchased from eBioscience, Inc. to measure the amount of IL-6 produced. […] A horseradish peroxidase (HRP)-labeled secondary antibody and chromogenic substrate were added thereto and then the absorbance was measured by using a plate reader. […] After completion of culturing, the supernatant was collected and the concentration of IL-6 was measured by ELISA.

[5] = 300 μM, presence of 10^7/mL HKPG (heat-sterilized Porphyromonas gingivalis), FIG. 2
[6] = treatment for 24 hours, absence of HKPG

| SMILES | expression level of LL-37 gene [1] | expression level of hBD3 gene [2, 5] | expression level of hBD3 gene [2, 6] | expression of ICAM-1 protein induced by TNF-α [3] | amount of released IL-6 induced by TNF-α [4] |
| --- | --- | --- | --- | --- | --- |
| CC=CSC[C@H](N)C(=O)O [S1PC, S-1-propenylcysteine] | significantly increased | significantly increased | no change | concentration-dependently down-regulated |  |
| C=CCSC[C@H](N)C(=O)O [SAC, S-allylcysteine] | significantly increased | significantly increased | no change |  | concentration-dependently reduced |
| C=CCSSCC(N)C(=O)O (stereo not drawn) [SAMC, S-allylmercaptocysteine] |  |  |  |  | concentration-dependently reduced |
